Assay results taken from US5066664A, “2-(hydroxy-2-alkylphenylamino)-oxazolines and thiazolines as anti-glaucoma and vasoconstrictive agents” (Allergan, Inc., priority 1990, dated 1991).
Structures can show the parent of a compound that is named as a salt. Where two headings read alike, the source gives them in different places.

Tests used:
[1] = tested on: New Zealand white rabbit eyes; test: Intraocular pressure (anti-glaucoma) assay in unanesthetized rabbits, topical unilateral administration; type: in vivo; conditions: for Maximum Difference in Intraocular Pressure After Solution Administration, Ipsilateral (Treated) Eye: 0.1% (W/V) in distilled water, single 50 microliter drop topically to one eye; for Maximum Difference in Intraocular Pressure After Solution Administration, Contralateral (Untreated) Eye: single 50 microliter drop to the other eye, contralateral (untreated) eye received saline
Method: The anti-glaucoma activity (ability to maintain or reduce intraocular pressure) of the compounds of the present invention was confirmed by the following assay procedure. This assay procedure is generally recognized in the art to provide pertinent information with respect to the anti-glaucomaactivity of the formulations assayed. Thus, each of the compounds of the invention to be tested was dissolved in distilled water at a concentration of 0.1% (W/V). Each of these solutions was administered topically and unilaterally to one eye of a drug-naive, unanesthetized New Zealand white rabbit in a single 50 microliter drop. The contralateral eye received an equal volume of saline prior to determining the intraocular pressure after the mixture was administered. Also, approximately 10 microliters of 0.5% (W/V) proparacine (topical anesthetic) was applied to the corneas of each of the rabbits before determining intraocular pressure. As a control test, six (6) other drug-naive, unanesthetized New Zealand white rabbits were treated and tested as described above except that no compound of the invention was included in the solutions administered to the eyes.
The intraocular pressure was determined in both eyes of each rabbit both before and after the solutions were administered. Such intraocular pressure determinations were made in the conventional manner using conventional equipment.

[2] = tested on: alpha 1 adrenergic receptors; test: Rabbit Aorta: Alpha 1 adrenergic receptor assay (isolated thoracic aorta rings, tension); conditions: 37° C., cumulative addition
[3] = target: alpha 1 adrenergic receptors; conditions: control substance; Shayes and Green, J. Pharmacol. Exp. Ther. 1971, Vol 180, pp 317-325; cited from earlier work

Compound	Maximum Difference in Intraocular Pressure After Solution Administration, Ipsilateral (Treated) Eye [1]	Maximum Difference in Intraocular Pressure After Solution Administration, Contralateral (Untreated) Eye ([1]; 0.1% (W/V))	reduction of intraocular pressure in the contralateral eye compared with the ipsilateral eye ([1]; result in words, New Zealand white rabbit, 0.1% (W/V))	EC50 [2]	EC50 [3]
Cc1c(O)cccc1NC1=NCCO1 [Compound 1, 2-(3-Hydroxy-2-methylphenylamino)-Oxazoline, hydrochloride]	-3.3 ± 1.0 mm Hg	-7.3 ± 1.0 mm Hg	the reduction in the contralateral eye is greater than in the ipsilateral eye	0.602 ± 0.108 µM	
Cc1c(O)ccc(NC2=NCCO2)c1C.Cl [Compound 2, 2-(2,3-Dimethyl-4-hydroxyphenylamino)-oxazoline, hydrochloride]	-3.9 ± 1.9 mm Hg	-3.3 ± 0.5 mm Hg		0.0199 ± 0.0156 µM	
CNC[C@H](O)c1cccc(O)c1 [L-phenylephrine]					0.182 µM
